20 molecules from patent US12643910B2, “Substituted pyrazolo[3,4-b]pyridines as ectonucleotide pyrophosphatase/phosphodiesterase 1 (ENPP1) modulators” (SANFORD BURNHAM PREBYS MEDICAL DISCOVERY INSTITUTE, priority 2019, dated 2026) can be followed below.

For one test, the target named is T1, human ENPP1 (Homo sapiens, UniProt P22413).
T1 construct: made in house
T1 sequence (P22413 1-925): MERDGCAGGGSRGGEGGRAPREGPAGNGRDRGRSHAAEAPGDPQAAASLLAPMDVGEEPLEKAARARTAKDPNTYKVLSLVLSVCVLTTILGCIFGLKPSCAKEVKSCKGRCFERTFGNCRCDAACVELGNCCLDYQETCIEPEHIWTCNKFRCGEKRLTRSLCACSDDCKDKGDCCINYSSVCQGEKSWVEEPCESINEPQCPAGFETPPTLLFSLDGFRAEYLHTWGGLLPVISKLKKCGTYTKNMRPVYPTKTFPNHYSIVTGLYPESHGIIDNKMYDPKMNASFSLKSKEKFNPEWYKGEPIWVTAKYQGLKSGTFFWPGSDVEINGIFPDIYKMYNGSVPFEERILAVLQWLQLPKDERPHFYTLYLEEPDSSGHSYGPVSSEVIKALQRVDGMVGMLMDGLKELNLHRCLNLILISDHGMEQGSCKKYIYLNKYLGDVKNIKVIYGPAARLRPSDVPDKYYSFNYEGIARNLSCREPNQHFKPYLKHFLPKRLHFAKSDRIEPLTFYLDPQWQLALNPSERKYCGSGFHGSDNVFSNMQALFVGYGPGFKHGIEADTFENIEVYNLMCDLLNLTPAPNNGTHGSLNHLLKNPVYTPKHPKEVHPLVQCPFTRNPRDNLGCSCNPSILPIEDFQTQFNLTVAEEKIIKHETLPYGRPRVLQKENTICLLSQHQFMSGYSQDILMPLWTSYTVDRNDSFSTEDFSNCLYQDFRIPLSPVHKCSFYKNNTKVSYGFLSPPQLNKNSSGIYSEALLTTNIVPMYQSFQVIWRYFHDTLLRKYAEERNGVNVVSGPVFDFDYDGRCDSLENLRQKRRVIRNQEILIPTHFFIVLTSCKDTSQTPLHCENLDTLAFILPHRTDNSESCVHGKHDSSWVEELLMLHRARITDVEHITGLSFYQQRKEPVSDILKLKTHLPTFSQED
The experiment in a line: ENPP1 assay with ATP substrate (Transcreener AMP2/GMP2 TR-FRET). It is filed as biochemical. The following applies: 1 hour at room temperature. An excerpt:
Example B1: ENPP1 Assay with ATP Substrate
Ectonucleotide pyrophosphatase/phosphodiesterase 1 (ENPP1) hydrolyzes ATP, breaking it down into 5′-AMP and pyrophosphate. The 5′-AMP formed from the reaction is detected by Transcreener® AMP2/GMP2 TR-FRET Assay (Bellbrook), containing AMP-tracer (HiLyte 647) and anti-AMP Terbium (Tb) donor. 5′-AMP generated in the reaction competes with AMP-tracer for binding with Anti-AMP Tb donor, and decreases TR-FRET signal.
Different concentrations of ENPP1 inhibitors are added to dry assay plate, followed by 2 μl 300 nM ATP. The reaction is initiated with the addition of 2 μl 8.5 μM human ENPP1 (generated by SBP Protein group). The assay reaction mixture contains a buffer of 50 mM Tris, pH 7.5, 1 mM TCEP, 2 mM MgCl2, 0.005% Tween 20, and 1% DMSO. The reaction is stopped after 1 hour at room temperature by adding 2 μL of 2 nM AMP-tracer and 2 μl of 2 nM Anti-AMP Tb donor in the 50 mM Tris, pH 7.5, buffer containing 20 mM EDTA and 0.1% Prionex. After 2 hour additional incubation at room temperature, the generated signal is measured using BMG Lab PHERASTAR instrument. 100% activity control samples (containing enzyme, substrate, buffer: MAX) and no enzyme control samples (containing substrate and buffer: MIN) are utilized to calculate percent inhibition (%) for each compound concentration well (COMPOUND) as follows.
The IC50 values are determined by fitting the inhibition curves with 2-parameter variable slope model in Graphpad Prism software using percent inhibition vs compound concentration data: […]

In the next test the target is T2, ENPP3 (Homo sapiens, UniProt O14638).
T2 sequence (O14638 1-875): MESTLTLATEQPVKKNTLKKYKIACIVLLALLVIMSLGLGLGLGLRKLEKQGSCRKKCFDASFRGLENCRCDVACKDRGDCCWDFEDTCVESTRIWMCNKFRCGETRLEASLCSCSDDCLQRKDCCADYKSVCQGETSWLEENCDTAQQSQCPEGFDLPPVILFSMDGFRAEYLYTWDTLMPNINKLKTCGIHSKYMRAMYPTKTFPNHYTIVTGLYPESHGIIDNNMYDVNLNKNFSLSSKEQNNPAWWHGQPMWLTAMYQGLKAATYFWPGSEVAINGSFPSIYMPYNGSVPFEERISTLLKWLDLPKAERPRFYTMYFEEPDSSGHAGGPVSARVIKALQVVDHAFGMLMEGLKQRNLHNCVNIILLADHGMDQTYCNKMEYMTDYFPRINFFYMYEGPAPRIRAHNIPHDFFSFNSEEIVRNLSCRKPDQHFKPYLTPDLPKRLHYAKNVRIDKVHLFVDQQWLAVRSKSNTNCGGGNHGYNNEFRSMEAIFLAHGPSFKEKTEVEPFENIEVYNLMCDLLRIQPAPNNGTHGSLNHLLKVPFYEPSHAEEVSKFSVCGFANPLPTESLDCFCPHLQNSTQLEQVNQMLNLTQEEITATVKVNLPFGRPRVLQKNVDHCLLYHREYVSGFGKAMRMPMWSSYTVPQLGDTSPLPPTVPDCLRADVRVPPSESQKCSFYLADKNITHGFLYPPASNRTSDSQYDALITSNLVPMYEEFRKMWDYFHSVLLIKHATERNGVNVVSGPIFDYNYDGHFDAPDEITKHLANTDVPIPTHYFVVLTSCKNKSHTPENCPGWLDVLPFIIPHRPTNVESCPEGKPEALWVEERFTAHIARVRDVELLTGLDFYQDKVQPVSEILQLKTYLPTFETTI
The experiment in a line: ENPP3 Km ATP assay. The following applies: ATP at Km. It counts as biochemical.

By IC50 is commonly meant the point on the concentration scale where inhibition reaches its midpoint. A higher IC50 goes with lower potency. On to `c1ccc(-c2csc3nc(-c4ccccn4)nc(NCc4ccncc4)c23)cc1` [Example 1, 5-Phenyl-2-(pyridin-2-yl)-N-(pyridin-4-ylmethyl)thieno[2,3-d]pyrimidin-4-amine], for which the IC50 at human ENPP1 is 0.1 to 1 µM; at ENPP3 it was more than 20 µM.

As to `c1ccc(-c2csc3nc(-c4ccccn4)nc(NCc4cccnc4)c23)cc1` [Example 1.1, 5-Phenyl-2-(pyridin-2-yl)-N-(pyridin-3-ylmethyl)thieno[2,3-d]pyrimidin-4-amine], the IC50 at human ENPP1 is 1 to 20 µM; at ENPP3, more than 20 µM.

Consider `COc1ccc(CNc2nc(-c3ccccn3)nc3scc(-c4ccccc4)c23)cc1` [Example 1.3, N-(4-Methoxybenzyl)-5-phenyl-2-(pyridin-2-yl)thieno[2,3-d]pyrimidin-4-amine], for which the IC50 on human ENPP1 and at ENPP3 was more than 20 µM each time.

As for `Fc1ccc(CNc2nc(-c3ccccn3)nc3scc(-c4ccccc4)c23)cc1` [Example 1.4, N-(4-Fluorobenzyl)-5-phenyl-2-(pyridin-2-yl)thieno[2,3-d]pyrimidin-4-amine], the IC50 on human ENPP1 and on ENPP3 was more than 20 µM each time.

For `c1ccc(CNc2nc(-c3ccccn3)nc3scc(-c4ccccc4)c23)cc1` [Example 1.5, N-Benzyl-5-phenyl-2-(pyridin-2-yl)thieno[2,3-d]pyrimidin-4-amine], the IC50 against human ENPP1 and at ENPP3 was more than 20 µM each time.

With `NS(=O)(=O)c1ccc(CNc2nc(-c3ccccn3)nc3scc(-c4ccccc4)c23)cc1` [Example 1.6, 4-(((5-Phenyl-2-(pyridin-2-yl)thieno[2,3-d]pyrimidin-4-yl)amino)methyl)benzenesulfonamide], the IC50 on human ENPP1 and on ENPP3 was less than 0.1 µM throughout.

On to `Cc1ccc(CNc2nc(-c3ccccn3)nc3scc(-c4ccccc4)c23)cc1` [Example 1.7, (4-Methyl-benzyl)-(5-phenyl-2-pyridin-2-yl-thieno[2,3-d]pyrimidin-4-yl)-amine], for which the 50% inhibitory concentration (IC50) at human ENPP1 and against ENPP3 was more than 20 µM in each case.

Regarding `Fc1ccccc1CNc1nc(-c2ccccn2)nc2scc(-c3ccccc3)c12` [Example 1.8, (2-Fluoro-benzyl)-(5-phenyl-2-pyridin-2-yl-thieno[2,3-d]pyrimidin-4-yl)-amine], the IC50 at human ENPP1 and on ENPP3 was more than 20 µM throughout.

With `Fc1cccc(CNc2nc(-c3ccccn3)nc3scc(-c4ccccc4)c23)c1` [Example 1.9, (3-Fluoro-benzyl)-(5-phenyl-2-pyridin-2-yl-thieno[2,3-d]pyrimidin-4-yl)-amine], the IC50 at human ENPP1 and on ENPP3 was more than 20 µM throughout.

For the molecule `Clc1ccc(CNc2nc(-c3ccccn3)nc3scc(-c4ccccc4)c23)cc1` [Example 1.10, (4-Chloro-benzyl)-(5-phenyl-2-pyridin-2-yl-thieno[2,3-d]pyrimidin-4-yl)-amine], the IC50 against human ENPP1 and on ENPP3 was more than 20 µM in each case.

For the molecule `N#Cc1ccc(CNc2nc(-c3ccccn3)nc3scc(-c4ccccc4)c23)cc1` [Example 1.11, 4-[(5-Phenyl-2-pyridin-2-yl-thieno[2,3-d]pyrimidin-4-ylamino)-methyl]-benzonitrile], the half-inhibitory concentration (IC50) against human ENPP1 and against ENPP3 was more than 20 µM throughout.

Take `NS(=O)(=O)c1ccc(CNc2nc(-c3ccccn3)nc3scc(-c4ccccc4)c23)cc1F` [Example 1.13, 2-Fluoro-4-(((5-phenyl-2-(pyridin-2-yl)thieno[2,3-d]pyrimidin-4-yl)amino)methyl)benzenesulfonamide]: the values for the IC50 on human ENPP1 and at ENPP3 were less than 0.1 µM and 0.1 to 1 µM, respectively.

For `NS(=O)(=O)c1ccc(CNc2nc(-c3ccccn3)nc3scc(-c4ccccc4)c23)cc1C(F)(F)F` [Example 1.14, 4-(((5-Phenyl-2-(pyridin-2-yl)thieno[2,3-d]pyrimidin-4-yl)amino)methyl)-2-(trifluoromethyl)benzenesulfonamide], the IC50 against human ENPP1 was less than 0.1 µM; on ENPP3, 0.1 to 1 µM.

Turning to `Cc1cc(S(N)(=O)=O)ccc1CNc1nc(-c2ccccn2)nc2scc(-c3ccccc3)c12` [Example 1.15, 3-Methyl-4-(((5-phenyl-2-(pyridin-2-yl)thieno[2,3-d]pyrimidin-4-yl)amino)methyl)-benzenesulfonamide], the IC50 at human ENPP1 and against ENPP3 was 0.1 to 1 µM each time.

Regarding `COc1cc(CNc2nc(-c3ccccn3)nc3scc(-c4ccccc4)c23)ccc1S(N)(=O)=O` [Example 1.16, 2-Methoxy-4-(((5-phenyl-2-(pyridin-2-yl)thieno[2,3-d]pyrimidin-4-yl)amino)methyl)benzenesulfonamide], the IC50 against human ENPP1 lay in the range of 0.1 to 1 µM; on ENPP3, 1 to 20 µM.

As to `COc1cc(S(N)(=O)=O)ccc1CNc1nc(-c2ccccn2)nc2scc(-c3ccccc3)c12` [Example 1.17, 3-Methoxy-4-(((5-phenyl-2-(pyridin-2-yl)thieno[2,3-d]pyrimidin-4-yl)amino)methyl)-benzenesulfonamide], the IC50 on human ENPP1 is less than 0.1 µM; on ENPP3, 1 to 20 µM.

Turning to `NS(=O)(=O)c1ccc(CNc2nc(-c3ccccn3)nc3scc(-c4ccccc4)c23)cc1Cl` [Example 1.18, 2-Chloro-4-(((5-phenyl-2-(pyridin-2-yl)thieno[2,3-d]pyrimidin-4-yl)amino)methyl)-benzenesulfonamide], the values for the IC50 at human ENPP1 and against ENPP3 were less than 0.1 µM and 0.1 to 1 µM, respectively.

`Cc1csc2c(N3CCC(NC(=O)C4CC4c4ccccc4)CC3)ncnc12` (stereo not shown) [Example 3.79, N-(1-(7-Methylthieno[3,2-d]pyrimidin-4-yl)piperidin-4-yl)-2-phenylcyclopropanecarboxamide] had an IC50 on human ENPP1 of 1 to 20 µM.

The molecule `Cc1csc2c(N3CCC(NCC4CC4c4ccncc4)CC3)nc(Cl)nc12` (stereo not shown) [Example 3.80, 1-(2-Chloro-7-methylthieno[3,2-d]pyrimidin-4-yl)-N-((2-(pyridin-4-yl)cyclopropyl)methyl)piperidin-4-amine] showed an IC50 against human ENPP1 of 1 to 20 µM.

On human ENPP1, `Cc1csc2c(N3CCC(NCC4CC4c4ccncc4)CC3)ncnc12` (stereo not shown) [Example 3.81, 1-(7-Methylthieno[3,2-d]pyrimidin-4-yl)-N-((2-(pyridin-4-yl)cyclopropyl)methyl)piperidin-4-amine] gave an IC50 of 0.1 to 1 µM.
